According to US9453242B2, “Method and culture medium for preparing mammalian ovum or embryo in which zona pellucida has been thinned or eliminated, and method for fertilization using mammalian ovum prepared by same method” (NATIONAL UNIVERISTY CORPORATION KUMAMOTO UNIVERSITY, priority 2010, dated 2016):
Read-outs that look alike come from different tables or passages of the source.

Experiments:
[1] = tested on: zona pellucida of mouse fresh unfertilized ovums
Procedure: Mouse fresh unfertilized ovums in which cumulus cells had been removed prepared according to the above-described “1. Preparation of ovum” were prepared. The ovums were treated with an HTF culture medium containing glutathione at a concentration of 100 mM (30.7 mg/ml) at 20° C. for 90 seconds. The operation conducted is explained referring to FIG. 7. Onto the bottom of a petri dish, 10 μl of a glutathione-containing HTF culture medium was dropped, and 10 embryos were inserted into this. […] After confirmation of disappearance of zona pellucida, the embryos were immediately diluted with 1000 μl of an HTF culture medium containing no glutathione, for avoiding damage on the embryos. Thereafter, the zona pellucida-eliminated embryos were transferred into a 100 μl drop of HTF, and further, transferred into a 100 μl drop of HTF twice, thus continuing incubation.
Elimination of the zona pellucida of an unfertilized ovum was conducted in the same manner as in Example 4 excepting use of an HTF culture medium having a glutathione concentration of 50 mM (15.4 mg/ml).
Mouse fresh unfertilized ovums in which cumulus cells had been removed prepared according to the above-described “1. Preparation of oocyte” were prepared, then, 10 μl of an HTF culture medium containing glutathione at various concentrations (5, 10, 25, 50, 100, 200 and 300 mM) was dropped onto the bottom of a petri dish, and 20 ovums were inserted into this, and the time until elimination of zona pellucida was measured.

[2] = tested on: mouse unfertilized ovum (cumulus-oocyte complexes)
Procedure: A sperm suspension is pre-incubated in 90 μl of a TYH culture medium at 37° C. for 30 minutes, and under a stereomicroscope, sperms showing motility are collected, avoiding nonmotile sperms, and used for fertilization. The pre-incubated sperm suspension (10 μl) is added to 90 μl of an HTF culture medium (±glutathione) into which cumulus-oocyte complexes (COCs) have been previously introduced (insemination), and these are co-incubated in an incubator for 5 to 6 hours (37° C., 5% CO2), thereby performing fertilization. Thereafter, the ovum is washed with drops of new HTF, and the ovum is observed. Those judged to parthenogenetic (only one pronucleus is recognized in ooplasm) are excluded, and on the following day (24 hours after insemination), only 2-cell stage embryos are selected, and fertilization rate is determined according to the following formula. In vitro fertilization rate (%)=(number of 2-cell stage embryo)/(number of 2-cell stage embryo+number of unfertilized ovum)×100
According to the ordinary method as described above, fresh sperms and frozen sperms of C57BL/6J mice and refrigerated sperms (refrigerated for 2 days) of ICR mice were used to prepare sperm suspensions, which were used for conducting in vitro fertilization. Further, according to the ordinary method as described above, mouse fresh unfertilized ovums were prepared and cumulus-oocyte complexes were obtained.
The HTF culture medium was prepared according to the composition table described above. To the prepared HTF culture medium was added reduced glutathione so that its concentration was 1 mM (0.307 mg/ml), to prepare a glutathione-containing culture medium. Specifically, the HTF culture medium was prepared according to the composition table, and the culture medium was enclosed in an amount of 5 ml for each operation into an ample (component A). Further, 30.7 mg of reduced glutathione (available from SIGMA) and 593.8 mg of NaCl were mixed, then, the mixture was dispensed in one-time use amount (glutathione 1.535 mg/mixture 31.225 mg) (component B). Until use, these reagents were refrigerated, and directly before use, the component A and the component B were mixed and used for insemination. As the control, only the component A (THF culture medium containing no glutathione added) was used.
Specifically, into 90 μl of a HTF culture medium (glutathione concentration: 1 mM) containing cumulus-oocyte complexes (COCs) in a dish were added sperm suspensions (collected motile sperms) of fresh sperms, frozen sperms and refrigerated sperms each in an amount of 10 μl, and fertilization was conducted and fertilization rate was determined according to the above-described theory. An HTF culture medium containing no glutathione was used as the control.
Fertilization rate was investigated using various reduced glutathione concentrations, in the same manner as in Example 1. As the sperm, frozen sperms of C57BL/6J mice were used, and processed according to FIG. 1.
Regarding the sperms, fresh sperms and frozen sperms pre-incubated with MBCD were used in performing fertilization. The concentration of glutathione in an HTF culture medium was 0.25 mM in the case of fresh sperms and 1 mM in the case of frozen sperms. The sperms were pre-incubated with a MBCD-containing TYH culture medium (no glutathione) before fertilization, in the same manner as in Example 3. The pre-incubation time was 1 hour in the case of fresh sperms and 30 minutes in the case of frozen sperms.
The sperms were pre-incubated with a MBCD-containing TYH culture medium (no glutathione) before fertilization, in the same manner as in Example 3. The pre-incubation time was 1 hour.

[3] = glutathione 100 mM (30.7 mg/ml), 20° C.

N[C@@H](CCC(=O)N[C@@H](CS)C(=O)NCC(=O)O)C(=O)O [glutathione, reduced glutathione]
glutathione concentration at which zona pellucida was eliminated [1]: ≥ 50 mM | condition of zona pellucida ([1]; glutathione 5 mM in HTF): thinning | condition of zona pellucida ([1]; glutathione 10 mM in HTF): thinning | condition of zona pellucida ([1]; glutathione 25 mM in HTF): thinning | condition of zona pellucida ([1]; glutathione 50 mM in HTF): elimination | time (second) necessary for lysis of zona pellucida ([1]; glutathione 50 mM in HTF): <1,500 second | zona pellucida-eliminated embryos produced ([1]; glutathione 50 mM, using 20 embryos, 2 experiments): 20 | time after which zona pellucida began to become thin (swell) [1, 3]: 30 s | time after which zona pellucida disappeared completely [1, 3]: 90 s | condition of zona pellucida ([1]; glutathione 100 mM in HTF): elimination | time (second) necessary for lysis of zona pellucida ([1]; glutathione 100 mM in HTF): <60 s | zona pellucida-eliminated embryos produced ([1]; glutathione 100 mM, using 70 embryos, 10 experiments): 70 | condition of zona pellucida ([1]; glutathione 200 mM in HTF): elimination | time (second) necessary for lysis of zona pellucida ([1]; glutathione 200 mM in HTF): <50 s | condition of zona pellucida ([1]; glutathione 300 mM in HTF): elimination | time (second) necessary for lysis of zona pellucida ([1]; glutathione 300 mM in HTF): <10 s | fertilization rate (%) ([2]; 129T2/SvEmsJ, cryopreserved sperms pre-incubated with MBCD, glutathione 1 mM): 82.1% | fertilization rate (%) ([2]; 129T2/SvEmsJ, fresh sperms pre-incubated with MBCD, glutathione 0.25 mM): 84.9% | fertilization rate (%) ([2]; B6C3F1, cryopreserved sperms pre-incubated with MBCD, glutathione 1 mM): 87.6% | fertilization rate (%) ([2]; B6C3F1, fresh sperms pre-incubated with MBCD, glutathione 0.25 mM): 97.7% | fertilization rate (%) ([2]; BALB/c, cryopreserved sperms pre-incubated with MBCD, glutathione 1 mM): 68.3% | fertilization rate (%) ([2]; BALB/c, fresh sperms pre-incubated with MBCD, glutathione 0.25 mM): 74.7% | fertilization rate (%) ([2]; BDF1, cryopreserved sperms pre-incubated with MBCD, glutathione 1 mM): 98.3% | fertilization rate (%) ([2]; BDF1, fresh sperms pre-incubated with MBCD, glutathione 0.25 mM): 94.2% | fertilization rate (%) ([2]; C3H/He, cryopreserved sperms pre-incubated with MBCD, glutathione 1 mM): 98.0% | fertilization rate (%) ([2]; C3H/He, fresh sperms pre-incubated with MBCD, glutathione 0.25 mM): 97.5% | fertilization rate (%) ([2]; C57BL/6J, cryopreserved sperms pre-incubated with MBCD, glutathione 1 mM): 97.9% | fertilization rate (%) ([2]; C57BL/6J, fresh sperms pre-incubated with MBCD, glutathione 0.25 mM): 95.6% | fertilization rate (%) ([2]; C57BL/6N, cryopreserved sperms pre-incubated with MBCD, glutathione 1 mM): 90.9% | fertilization rate (%) ([2]; C57BL/6N, fresh sperms pre-incubated with MBCD, glutathione 0.25 mM): 90.9% | fertilization rate (%) ([2]; DBA/2N, cryopreserved sperms pre-incubated with MBCD, glutathione 1 mM): 95.8% | fertilization rate (%) ([2]; DBA/2N, fresh sperms pre-incubated with MBCD, glutathione 0.25 mM): 95.2% | fertilization rate (%) ([2]; ICR, cryopreserved sperms pre-incubated with MBCD, glutathione 1 mM): 94.9% | fertilization rate (%) ([2]; ICR, fresh sperms pre-incubated with MBCD, glutathione 0.25 mM): 93.8% | reduced glutathione concentration giving remarkable improvement in fertilization rate ([2]; fresh sperms): ≥ 0.075 mg/mL | fertilization rate (%) ([2]; fresh sperms of C57BL/6J mice, glutathione 1 mM in HTF): 82.5% | effect on fertilization rate ([2]; fresh sperms, various lineages, glutathione 0.25 mM): sufficient improvement in fertilization rate | glutathione concentration at which improvement in fertilization rate was confirmed ([2]; frozen C57BL/6J sperms): ≥ 0.5 mM | fertilization rate (%) ([2]; frozen sperms of C57BL/6J mice, glutathione 1 mM in HTF): 92.1% | effect on fertilization rate ([2]; frozen sperms, all mouse lineages, glutathione 1 mM): remarkable improvement in fertilization rate for frozen sperms | number of 2-cell stage embryo(%) ([2]; glutathione 0.25 mM, frozen C57BL/6J sperms): 67% | number of 2-cell stage embryo ([2]; glutathione 0.25 mM, frozen C57BL/6J sperms, 279 oocytes): 187 | number of 2-cell stage embryo(%) ([2]; glutathione 0.50 mM, frozen C57BL/6J sperms): 79% | number of 2-cell stage embryo ([2]; glutathione 0.50 mM, frozen C57BL/6J sperms, 316 oocytes): 251 | number of 2-cell stage embryo(%) ([2]; glutathione 0.75 mM, frozen C57BL/6J sperms): 82% | number of 2-cell stage embryo ([2]; glutathione 0.75 mM, frozen C57BL/6J sperms, 307 oocytes): 252 | effect on fertilization rate ([2]; glutathione 1 mM, fresh, frozen and refrigerated sperms): significant improvement in fertilization rate | number of 2-cell stage embryo(%) ([2]; glutathione 1.00 mM, frozen C57BL/6J sperms): 92% | number of 2-cell stage embryo ([2]; glutathione 1.00 mM, frozen C57BL/6J sperms, 276 oocytes): 254 | number of 2-cell stage embryo(%) ([2]; glutathione 1.25 mM, frozen C57BL/6J sperms): 93% | number of 2-cell stage embryo ([2]; glutathione 1.25 mM, frozen C57BL/6J sperms, 292 oocytes): 272 | number of 2-cell stage embryo(%) ([2]; glutathione 1.50 mM, frozen C57BL/6J sperms): 89% | number of 2-cell stage embryo ([2]; glutathione 1.50 mM, frozen C57BL/6J sperms, 294 oocytes): 262 | number of 2-cell stage embryo(%) ([2]; glutathione 2.00 mM, frozen C57BL/6J sperms): 92% | number of 2-cell stage embryo ([2]; glutathione 2.00 mM, frozen C57BL/6J sperms, 309 oocytes): 285 | number of 2-cell stage embryo(%) ([2]; glutathione 5.00 mM, frozen C57BL/6J sperms): 86% | number of 2-cell stage embryo ([2]; glutathione 5.00 mM, frozen C57BL/6J sperms, 292 oocytes): 251 | number of 2-cell stage embryo(%) ([2]; glutathione 10.00 mM, frozen C57BL/6J sperms): 81% | number of 2-cell stage embryo ([2]; glutathione 10.00 mM, frozen C57BL/6J sperms, 341 oocytes): 276 | fertilization rate (%) ([2]; refrigerated sperms (2 days) of ICR mice, glutathione 1 mM in HTF): 63.9% | fertilization rate ([2]; refrigerated sperms of C57BL/6J mice pre-incubated with MBCD 1 hour, glutathione 0.5 mM): 85.4%
